Source: US20250115569A1, “SULFONAMIDE COMPOUNDS FOR THE TREATMENT OF NEUROLOGICAL CONDITIONS” (LARIO THERAPEUTICS LIMITED, priority 2021, published 2025)

Tests used:
[1] = test system: Human Cav2.3 channel; test: Human Cav2.3 channel calcium-influx assay; assay type: cell-based; settings: Fluo8 fluorescence, HEK-293 T-Rex/Kir2.1/Cav2.3e cells, without pluronic acid
In short: (§1)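 Signal = peak fluorescence (5–130 s) minus baseline (1–2 s), normalized to neutral (0) and inhibitor (−100) controls as % effect. Depolarization used final 20 mM KCl, 130 mM NaCl, 2 mM CaCl2, after 3 min RT compound exposure (30 μM top, half-log, 8 points, 0.3% DMSO) in doxycycline-induced HEK-293 T-Rex/Kir2.1/Cav2.3e-β4-α2δ1 cells with Fluo8 NW.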

[2] = biological target: T1, Cav2.3 (Homo sapiens, UniProt Q15878); test: Whole-cell patch clamp assay (QPatch) in HEK-293 T-Rex/Kir2.1/Cav2.3e-β4-α2δ1 cells; assay type: cell-based; settings: QPatch 16X, room temperature, mean ± S.E, read-out: Cav2.3 (pIC50) (converted)
T1 sequence (Q15878 whole entry, looked up): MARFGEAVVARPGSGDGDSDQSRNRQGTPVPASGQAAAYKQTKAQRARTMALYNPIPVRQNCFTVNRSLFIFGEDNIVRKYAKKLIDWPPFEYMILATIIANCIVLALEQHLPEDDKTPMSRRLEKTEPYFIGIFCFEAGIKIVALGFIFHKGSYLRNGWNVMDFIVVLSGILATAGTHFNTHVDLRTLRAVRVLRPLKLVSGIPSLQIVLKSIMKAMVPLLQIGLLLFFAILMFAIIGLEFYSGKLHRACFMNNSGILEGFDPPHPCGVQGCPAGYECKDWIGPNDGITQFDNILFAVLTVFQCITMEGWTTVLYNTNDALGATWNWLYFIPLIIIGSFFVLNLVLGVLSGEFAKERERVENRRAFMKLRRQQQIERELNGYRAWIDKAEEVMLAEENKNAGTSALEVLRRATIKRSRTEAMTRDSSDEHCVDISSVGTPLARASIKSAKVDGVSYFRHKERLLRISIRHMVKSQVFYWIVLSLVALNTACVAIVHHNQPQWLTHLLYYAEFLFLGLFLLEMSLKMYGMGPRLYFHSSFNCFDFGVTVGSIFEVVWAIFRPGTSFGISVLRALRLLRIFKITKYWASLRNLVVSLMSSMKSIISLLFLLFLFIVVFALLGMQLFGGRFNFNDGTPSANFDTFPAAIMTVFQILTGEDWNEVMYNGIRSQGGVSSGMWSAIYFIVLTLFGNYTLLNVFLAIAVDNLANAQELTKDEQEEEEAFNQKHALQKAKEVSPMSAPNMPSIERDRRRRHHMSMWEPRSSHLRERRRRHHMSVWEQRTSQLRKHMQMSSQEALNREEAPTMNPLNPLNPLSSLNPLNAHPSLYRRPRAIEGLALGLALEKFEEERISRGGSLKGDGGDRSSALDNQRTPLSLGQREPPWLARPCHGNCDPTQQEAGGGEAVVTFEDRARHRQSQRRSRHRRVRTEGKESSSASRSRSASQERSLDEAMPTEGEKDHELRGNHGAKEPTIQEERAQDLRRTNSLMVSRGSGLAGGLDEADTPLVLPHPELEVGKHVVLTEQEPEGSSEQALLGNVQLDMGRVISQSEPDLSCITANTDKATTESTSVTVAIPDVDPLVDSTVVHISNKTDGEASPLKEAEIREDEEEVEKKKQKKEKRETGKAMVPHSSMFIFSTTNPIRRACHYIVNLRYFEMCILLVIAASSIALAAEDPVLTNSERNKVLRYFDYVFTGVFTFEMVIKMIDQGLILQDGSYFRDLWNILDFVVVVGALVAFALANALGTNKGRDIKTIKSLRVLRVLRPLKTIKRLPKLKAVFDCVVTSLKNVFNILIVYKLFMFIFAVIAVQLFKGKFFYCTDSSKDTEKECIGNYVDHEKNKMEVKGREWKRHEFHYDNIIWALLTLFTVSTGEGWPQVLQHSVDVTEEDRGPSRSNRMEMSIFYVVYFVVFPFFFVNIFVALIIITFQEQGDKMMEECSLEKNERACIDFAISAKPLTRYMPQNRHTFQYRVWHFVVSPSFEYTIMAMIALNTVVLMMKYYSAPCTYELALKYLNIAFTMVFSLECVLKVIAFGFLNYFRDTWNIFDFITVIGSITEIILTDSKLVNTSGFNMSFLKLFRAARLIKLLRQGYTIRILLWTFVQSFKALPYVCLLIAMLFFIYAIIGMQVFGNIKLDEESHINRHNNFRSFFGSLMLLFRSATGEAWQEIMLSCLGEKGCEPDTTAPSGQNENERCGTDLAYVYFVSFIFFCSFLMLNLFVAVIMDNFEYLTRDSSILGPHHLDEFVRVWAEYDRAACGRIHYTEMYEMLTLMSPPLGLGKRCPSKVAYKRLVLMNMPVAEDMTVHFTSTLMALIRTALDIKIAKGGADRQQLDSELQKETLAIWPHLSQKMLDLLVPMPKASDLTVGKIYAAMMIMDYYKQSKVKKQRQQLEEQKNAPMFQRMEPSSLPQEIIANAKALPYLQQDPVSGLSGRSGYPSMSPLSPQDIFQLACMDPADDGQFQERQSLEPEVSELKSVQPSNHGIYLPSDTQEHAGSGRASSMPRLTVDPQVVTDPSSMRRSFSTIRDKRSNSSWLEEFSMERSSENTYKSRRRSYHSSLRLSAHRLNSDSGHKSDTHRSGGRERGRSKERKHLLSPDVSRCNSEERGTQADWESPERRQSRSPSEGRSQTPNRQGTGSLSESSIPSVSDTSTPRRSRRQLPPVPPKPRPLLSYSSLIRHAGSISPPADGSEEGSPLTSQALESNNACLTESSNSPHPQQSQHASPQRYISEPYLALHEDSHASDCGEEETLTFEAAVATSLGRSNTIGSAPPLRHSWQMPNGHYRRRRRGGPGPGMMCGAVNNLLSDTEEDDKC
Experimental: HEK-293 T-Rex/Kir2.1/Cav2.3e-β4-α2δ1 cells were seeded 96 hours before experiment and doxycycline at 0.2 μg/mL was added 24 hours before experiment. Just before the experiments cells were washed twice with D-PBS w/o Ca^2+/Mg^2+ and gently detached from the flask with Detachin. Cells were then re-suspended in the suspension solution (25 mL EX-CELL ACF CHO medium; 0.25 mL of 100× Penicillin/Streptomycin) and placed on the Automated Patch-clamp platform (QPatch 16X).
Standard whole-cell voltage clamp experiments were performed at room temperature using the single hole technology and the following intracellular and extracellular solutions (ICS and ECS, respectively) were used. ICS (mM): CsF 60, CsCl 50, NaCl 10, EGTA 20, BAPTA 5, HEPES 10, NaGTP 0.3, MgATP 5 (pH 7.2; ECS (mM): NMDG-Cl 120, BaCl2 20, HEPES 10, EGTA 7 (pH 7.4). After establishment of the seal and the passage in the whole-cell configuration, the Cav2.3 dependent current was evoked by challenging the cells with the following voltage protocol: the plasma membrane was held at −80 mV then a 50 ms-long depolarizing pulse at 0 mV, followed by a 50 ms-long hyperpolarizing pulse at −100 mV were applied and finally the plasma membrane was held back to −80 mV. This voltage protocol was applied every 10 seconds. Cav2.3 dependent current was first measured in control condition (vehicle, 0.1% DMSO), in the presence of increasing concentration of the compound under investigation and finally SNX 482 was added to fully block any R-type Cav2.3 dependent current.
For data collection, the Sophion proprietary software was used while the analysis was performed off-line using Excel and GraphPad Prism. The inward current (Area Under Curve) measured during each depolarizing pulse was normalized to cell membrane capacitance (Cm) to obtain the average inward current density in each condition (control, compound under investigation and SNX 482). Then, the inhibitory effect of the compound under investigation was evaluated as % of the remaining inward current, normalized to the internal control. […] All data were expressed as mean±S.E

[3] = biological target: R-type calcium current in substantia nigra dopamine neurons (Mus musculus (Mouse), UniProt Q61290); test: Ex vivo whole cell patch clamp in substantia nigra dopamine neurons, mouse brain slice; assay type: cell-based; settings: concentrations of 10 μM
Sequence of R-type calcium current in substantia nigra dopamine neurons (Q61290 whole entry): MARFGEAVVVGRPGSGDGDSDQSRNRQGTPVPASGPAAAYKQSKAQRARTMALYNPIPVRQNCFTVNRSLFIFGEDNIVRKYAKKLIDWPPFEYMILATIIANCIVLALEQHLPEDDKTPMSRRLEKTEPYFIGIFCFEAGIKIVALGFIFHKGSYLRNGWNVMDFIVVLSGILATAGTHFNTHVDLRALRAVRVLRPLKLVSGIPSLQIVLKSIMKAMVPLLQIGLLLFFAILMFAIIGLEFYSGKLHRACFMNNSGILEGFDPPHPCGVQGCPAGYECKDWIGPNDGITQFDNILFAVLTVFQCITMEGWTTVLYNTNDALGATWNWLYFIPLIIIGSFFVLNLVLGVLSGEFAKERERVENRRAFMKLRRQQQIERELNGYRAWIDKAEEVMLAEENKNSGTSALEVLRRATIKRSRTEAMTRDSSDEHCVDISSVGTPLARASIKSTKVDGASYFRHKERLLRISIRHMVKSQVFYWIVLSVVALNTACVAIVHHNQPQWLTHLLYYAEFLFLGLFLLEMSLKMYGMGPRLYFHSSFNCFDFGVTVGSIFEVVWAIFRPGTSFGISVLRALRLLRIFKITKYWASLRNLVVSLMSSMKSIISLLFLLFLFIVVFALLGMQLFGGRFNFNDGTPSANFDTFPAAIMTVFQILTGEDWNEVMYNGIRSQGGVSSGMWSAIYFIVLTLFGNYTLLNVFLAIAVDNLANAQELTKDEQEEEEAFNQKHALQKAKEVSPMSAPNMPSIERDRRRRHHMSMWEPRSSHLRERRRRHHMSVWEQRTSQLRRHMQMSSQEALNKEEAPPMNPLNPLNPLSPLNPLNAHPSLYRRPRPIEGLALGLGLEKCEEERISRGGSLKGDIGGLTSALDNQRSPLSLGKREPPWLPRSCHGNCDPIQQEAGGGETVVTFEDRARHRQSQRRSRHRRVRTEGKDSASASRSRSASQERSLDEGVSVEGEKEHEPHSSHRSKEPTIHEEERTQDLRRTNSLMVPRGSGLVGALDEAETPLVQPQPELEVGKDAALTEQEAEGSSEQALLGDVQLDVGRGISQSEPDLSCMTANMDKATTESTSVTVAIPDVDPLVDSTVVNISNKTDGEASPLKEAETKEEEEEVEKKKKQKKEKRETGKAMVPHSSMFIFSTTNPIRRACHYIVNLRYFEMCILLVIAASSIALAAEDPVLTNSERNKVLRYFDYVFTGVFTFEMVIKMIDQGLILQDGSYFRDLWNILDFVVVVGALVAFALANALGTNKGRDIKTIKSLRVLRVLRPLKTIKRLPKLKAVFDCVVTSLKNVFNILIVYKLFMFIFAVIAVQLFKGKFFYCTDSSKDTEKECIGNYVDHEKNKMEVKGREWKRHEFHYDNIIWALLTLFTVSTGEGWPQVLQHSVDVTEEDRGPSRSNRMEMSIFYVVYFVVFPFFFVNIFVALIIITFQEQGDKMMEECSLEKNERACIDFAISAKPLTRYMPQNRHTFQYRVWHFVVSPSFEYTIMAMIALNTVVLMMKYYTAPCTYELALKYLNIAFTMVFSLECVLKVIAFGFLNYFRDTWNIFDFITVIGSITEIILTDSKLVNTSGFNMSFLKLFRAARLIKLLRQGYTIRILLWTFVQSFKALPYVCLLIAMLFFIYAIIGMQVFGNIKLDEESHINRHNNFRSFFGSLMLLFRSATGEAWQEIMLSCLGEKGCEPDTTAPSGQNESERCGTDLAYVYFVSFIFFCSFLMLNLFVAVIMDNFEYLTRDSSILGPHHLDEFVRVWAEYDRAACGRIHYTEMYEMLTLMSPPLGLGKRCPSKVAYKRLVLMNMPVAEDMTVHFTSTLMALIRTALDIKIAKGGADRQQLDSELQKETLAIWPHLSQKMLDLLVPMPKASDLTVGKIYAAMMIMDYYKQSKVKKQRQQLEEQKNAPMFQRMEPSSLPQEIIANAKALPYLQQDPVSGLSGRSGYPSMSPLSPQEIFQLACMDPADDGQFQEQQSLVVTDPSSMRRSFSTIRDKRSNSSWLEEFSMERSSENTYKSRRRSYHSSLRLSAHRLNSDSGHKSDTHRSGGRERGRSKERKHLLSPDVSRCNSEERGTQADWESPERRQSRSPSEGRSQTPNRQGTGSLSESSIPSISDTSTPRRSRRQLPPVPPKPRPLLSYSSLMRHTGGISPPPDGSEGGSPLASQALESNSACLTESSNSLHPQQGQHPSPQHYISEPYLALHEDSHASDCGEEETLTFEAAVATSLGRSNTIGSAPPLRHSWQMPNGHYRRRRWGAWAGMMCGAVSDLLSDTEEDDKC
Experimental: Compounds of the invention were tested on R-type calcium current with whole cell patch clamp electrophysiology in substantia nigra dopamine neurons in an ex vivo brain slice preparation according to the methods described in Siller et al., Elife, 11:e67464 (2022) https://doi.org/i0.7554/eLife.67464.

[4] = test system: MES model of epilepsy; test: Maximal electroshock stimulation model (MES) in mouse; assay type: in vivo; settings: 1.5 mg/kg, oral administration
Experimental: Compounds of the invention were tested in an in vivo model of epilepsy, the MES model in mouse, according to the method described in Kehne et al, Neurochemistry Research 42:1894-1903 (2017) 1 https://doi.org/10.1007/s11064-017-2275-z.

[5] = biological target: T1, Cav2.3; test: Human Cav2.3 channel calcium-influx assay; assay type: cell-based; settings: Fluo8 fluorescence, HEK-293 T-Rex/Kir2.1/Cav2.3e cells, without pluronic acid, read-out: Cav2.3 (pIC50) (converted)
In short: as §1

Compound | Cav2.3 (pIC50) [1] | IC50 [2] | activity blocking R-type calcium current [3] | IC50 [5] | activity in the MES model [4]
CCN([C@H](c1ccc(F)cc1)C(F)(F)F)S(=O)(=O)c1cncc(C#N)c1 [Example 35, (R)-5-cyano-N-ethyl-N-(2,2,2-trifluoro-1-(4-fluorophenyl)ethyl)pyridine-3-sulfonamide] | 7.87 | 46.8 nM | active | – | active
CCN(C(c1ccc(F)cc1)C(F)(F)F)S(=O)(=O)CC1CCOCC1 (stereo not drawn) [Example 20, N-ethyl-1-(tetrahydro-2H-pyran-4-yl)-N-(2,2,2-trifluoro-1-(4-fluorophenyl)ethyl)methanesulfonamide] | – | 708 nM | – | 794 nM | –
CN([C@H](c1ccc(Cl)cc1)C(F)(F)F)S(=O)(=O)c1ccc2nccn2c1 [Example 178, (R)—N-(1-(4-chlorophenyl)-2,2,2-trifluoroethyl)-N-methylimidazo[1,2-a]pyridine-6-sulfonamide] | – | 380 nM | – | 178 nM | –

Now from value to molecule, other results behind:

Cav2.3 (pIC50) [1] | IC50 [2] | activity blocking R-type calcium current [3] | IC50 [5] | Compound | activity in the MES model [4]
– | 457 nM | – | 145 nM | CN([C@H](c1ccc(Cl)cc1)C(F)(F)F)S(=O)(=O)c1ccn2ncnc2c1 [Example 191, (R)—N-(1-(4-chlorophenyl)-2,2,2-trifluoroethyl)-N-methyl-[1,2,4]triazolo[1,5-a]pyridine-7-sulfonamide] | –
– | 141 nM | – | 30.2 nM | CN([C@H](c1ccc(Cl)cc1)C(F)(F)F)S(=O)(=O)c1cncc(F)c1 [Example 220, (R)—N-(1-(4-chlorophenyl)-2,2,2-trifluoroethyl)-5-fluoro-N-methylpyridine-3-sulfonamide] | –
